Measured values taken from patent US20240382435A1, “NON-CERULOPLASMIN BOUND COPPER LEVEL MONITORING” (ORPHALAN S.A., priority 2021, published 2024).

What was measured:
[1] = test system: patients with Wilson's Disease; test: Serum NCC by copper speciation assay, randomized open-label clinical study (Example 3); type: in vivo, human
Experimental: 1.95 mL of rhodium internal standard solution containing 1% TMAH/1% EDTA was combined with 50 μL of human serum in a 15 mL polypropylene tube, capped and rotary mixed for at least 30 minutes. The processed sample was then analysed by ICP-MS on an Agilent 7900x inductively coupled plasma mass spectrometer.
The samples were defrosted and equilibrated to room temperature prior to use, and vortex mixed for approximately 5 seconds. 80 μL of 50 mM Tris-HCl (pH 7.4) buffer solution was combined with 20 μL of the clinical sample, blank or reference standard in a 0.5 mL Eppendorf tube (protein low bind). The diluted sample (100 μL) was transferred to a 0.3 mL polypropylene LC vial and sealed with a screw cap. An aliquot (50 μL) of each processed sample was then analysed by LC-ICP-MS on an Agilent 8900x inductively coupled plasma mass spectrometer.
Speciation analysis of Cu-containing species in the serum samples was performed by an anion exchange high performance liquid chromatography (AE HPLC) column (GE Healthcare MonoQ 5/50 GL, stationary phase (10 μm; 5×50 mm)) with an ammonium acetate gradient (0-250 mM) for 20 min. A flow rate of 1.0 mL/min was used. The chromatographic separation was performed at 25° C. Detection of the eluting Cu species was achieved using a collision/reaction cell Agilent Technologies 8900x ICP-MS spectrometer. The isotopes 63Cu and 65Cu were monitored in time resolved mode analysis using an integration time of 0.3 sec. 63Cu is the most abundant isotope and therefore this isotope was used to quantify copper by LC-ICP-MS.
Efficacy was assessed and treatments were monitored primarily using total copper analysis and a copper speciation assay as outlined in Examples 1 and 2 to determine serum NCC levels.
Eligible patients were clinically stable with their standard of-care D penicillamine chelation therapy for at least 1 year. These patients entered a 12-Week Penicillamine Baseline Period (from study visits on Day 1 to Week 12). During this time, all patients continued their current D penicillamine regimen under study conditions. At the end of the Penicillamine Baseline Period, patients who fulfilled the protocol definition of being adequately controlled and tolerating D penicillamine were randomized in a 1:1 ratio to receive either TETA 4HCl or to continue to receive D penicillamine during a 24-Week Post-Randomization Period (from study visits Week 12 to Week 36).
The primary efficacy endpoint was the serum NCC concentration (in μg/L) at Week 36. Serum NCC concentrations were determined using a copper speciation serum NCC assay using the methodology outlined in Examples 1 and 2. The primary efficacy analysis utilized the serum NCC values from all study visits that were analyzed using a restricted maximum likelihood based general linear model for correlated data. The correlation due to repeated measures was modelled by specifying the variance covariance matrix.

[2] = test system: patients with Wilson's Disease; test: 24-hour urinary copper excretion (UCE), clinical study of Example 3; type: in vivo, human; settings: ITT
Experimental: The number and the proportion of patients with a serum NCC value that matched the threshold (eg, serum NCC≤50 μg/L) were presented along with the 95% confidence interval of the proportion by visit and treatment arm. The proportions in the 2 arms were compared using Fisher's exact test. The same approach was applied on 24-hour UCE.

[3] = test system: patients with Wilson's Disease; test: Clinical Global Impression of Change (CGIC) rating scale, clinical study of Example 3; type: in vivo, human; settings: 7-point scale, ITT
Description: The CGIC rating scale, a 7-point ordinal score, was summarized by visit and treatment arm, and compared between arms using a stratified Cochran-Mantel-Haenszel test. The UWDRS, a continuous measure, was summarized by visit and treatment arm with descriptive statistics for absolute values and the changes from baseline.

[4] = test system: patients with Wilson's Disease; test: Baseline ALT, clinical study of Example 3; settings: baseline (Penicillamine Baseline Period), by treatment arm
Description: For change from baseline in laboratory measurements, “baseline” was defined as the last non-missing value during the Penicillamine Baseline Period, including unscheduled values.

[5] = Day 1, 12-Week Penicillamine Baseline Period (all patients on D-penicillamine), ITT population, by arm
[6] = Week 4, Penicillamine Baseline Period (all patients on D-penicillamine), ITT
[7] = Week 8, Penicillamine Baseline Period (all patients on D-penicillamine), ITT
[8] = Week 12 (randomization), end of Penicillamine Baseline Period, ITT
[9] = Week 16, Post-Randomization Period, ITT
[10] = Week 20, Post-Randomization Period, ITT
[11] = Week 24, Post-Randomization Period, ITT
[12] = Week 28, Post-Randomization Period, ITT
[13] = Week 32, Post-Randomization Period, ITT
[14] = Week 36, Post-Randomization Period, ITT
[15] = Day 1, 12-Week Penicillamine Baseline Period (all patients on D-penicillamine), by arm
[16] = Week 4, Penicillamine Baseline Period (all patients on D-penicillamine)
[17] = Week 12 (randomization), end of Penicillamine Baseline Period
[18] = Week 16, 24-Week Post-Baseline Period
[19] = Week 24, 24-Week Post-Baseline Period
[20] = Week 36, 24-Week Post-Baseline Period
[21] = Week 12, Penicillamine Baseline Period
[22] = Week 16, Post-Randomization Period
[23] = Week 24, Post-Randomization Period
[24] = Week 36, Post-Randomization Period

Q: Which “serum NCC value, mean” value [1, 5] does the source give for `Cl.Cl.Cl.Cl.NCCNCCNCCN` [TETA 4HCl, trientine tetrahydrochloride] here?
A: 60.7 µg/L

Q: What about the “serum NCC value, median” value [1, 5] of the same compound?
A: 58.2 µg/L

Q: And the “serum NCC value, mean” value [1, 6]?
A: 57.6 µg/L

Q: What about the “serum NCC value, median” value [1, 6] of the same compound?
A: 58.5 µg/L

Q: What about the “serum NCC value, mean” value [1, 7] of the same compound?
A: 70.0 µg/L

Q: What about the “serum NCC value, median” value [1, 7] of the same compound?
A: 61.5 µg/L

Q: What about the “serum NCC value, mean” value [1, 8] of the same compound?
A: 68.5 µg/L

Q: And the “serum NCC value, median” value [1, 8]?
A: 61.1 µg/L

Q: What about the “serum NCC value, mean” value ([1]; Week 16, 24-Week Post-Randomization Period, ITT) of the same compound?
A: 78.0 µg/L

Q: And the “serum NCC change from baseline, mean” value [1, 9]?
A: 9.4 µg/L

Q: And the “serum NCC change from baseline, median” value [1, 9]?
A: 9.2 µg/L

Q: What about the “serum NCC value, median” value [1, 9] of the same compound?
A: 69.6 µg/L

Q: And the “serum NCC change from baseline, mean” value [1, 10]?
A: 8.2 µg/L

Q: And the “serum NCC change from baseline, median” value [1, 10]?
A: 4.1 µg/L

Q: What about the “serum NCC value, mean” value [1, 10] of the same compound?
A: 76.8 µg/L

Q: What about the “serum NCC value, median” value [1, 10] of the same compound?
A: 60.8 µg/L

Q: What about the “serum NCC change from baseline, mean” value [1, 11] of the same compound?
A: -0.4 µg/L

Q: And the “serum NCC change from baseline, median” value [1, 11]?
A: 3.0 µg/L

Q: What about the “serum NCC value, mean” value [1, 11] of the same compound?
A: 60.3 µg/L

Q: What about the “serum NCC value, median” value [1, 11] of the same compound?
A: 57.0 µg/L

Q: And the “serum NCC change from baseline, mean” value [1, 12]?
A: -0.8 µg/L

Q: What about the “serum NCC change from baseline, median” value [1, 12] of the same compound?
A: 0.0 µg/L

Q: What about the “serum NCC value, mean” value [1, 12] of the same compound?
A: 69.5 µg/L

Q: And the “serum NCC value, median” value [1, 12]?
A: 62.4 µg/L

Q: And the “serum NCC change from baseline, mean” value [1, 13]?
A: -4.6 µg/L

Q: What about the “serum NCC change from baseline, median” value [1, 13] of the same compound?
A: 0.7 µg/L

Q: What about the “serum NCC value, mean” value [1, 13] of the same compound?
A: 64.0 µg/L

Q: What about the “serum NCC value, median” value [1, 13] of the same compound?
A: 60.0 µg/L

Q: What about the “serum NCC value, mean” value ([1]; Week 36 (primary efficacy endpoint), Post-Randomization Period, ITT) of the same compound?
A: 57.6 µg/L

Q: What about the “serum NCC change from baseline, mean” value [1, 14] of the same compound?
A: -11.0 µg/L

Q: What about the “serum NCC change from baseline, median” value [1, 14] of the same compound?
A: -6.9 µg/L

Q: What about the “serum NCC value, median” value [1, 14] of the same compound?
A: 51.1 µg/L

Q: What about the “serum NCC levels, comparison between arms” value ([1]; copper speciation assay, Table 4) of the same compound?
A: very similar

Q: And the “24-hour UCE value, mean” value [2, 15]?
A: 550.8 μg/24 hours

Q: What about the “24-hour UCE value, median” value [2, 15] of the same compound?
A: 546.6 μg/24 hours

Q: What about the “24-hour UCE value, mean” value [2, 16] of the same compound?
A: 545.4 μg/24 hours

Q: What about the “24-hour UCE value, median” value [2, 16] of the same compound?
A: 436.1 μg/24 hours

Q: And the “24-hour UCE value, mean” value [2, 17]?
A: 535.1 μg/24 hours

Q: What about the “24-hour UCE value, median” value [2, 17] of the same compound?
A: 590.4 μg/24 hours

Q: And the “24-hour UCE change from baseline, mean” value [2, 18]?
A: −223 μg/24 hours

Q: And the “24-hour UCE change from baseline, median” value [2, 18]?
A: −221 μg/24 hours

Q: And the “24-hour UCE value, mean” value [2, 18]?
A: 316.4 μg/24 hours

Q: And the “24-hour UCE value, median” value [2, 18]?
A: 265.6 μg/24 hours

Q: What about the “24-hour UCE change from baseline, mean” value [2, 19] of the same compound?
A: −247 μg/24 hours

Q: And the “24-hour UCE change from baseline, median” value [2, 19]?
A: −199 μg/24 hours

Q: What about the “24-hour UCE value, mean” value [2, 19] of the same compound?
A: 295.7 μg/24 hours

Q: And the “24-hour UCE value, median” value [2, 19]?
A: 257.8 μg/24 hours

Q: What about the “24-hour UCE change from baseline, mean” value [2, 20] of the same compound?
A: −258 μg/24 hours

Q: And the “24-hour UCE change from baseline, median” value [2, 20]?
A: −231 μg/24 hours

Q: What about the “24-hour UCE value, mean” value [2, 20] of the same compound?
A: 289.4 μg/24 hours

Q: What about the “24-hour UCE value, median” value [2, 20] of the same compound?
A: 234.8 μg/24 hours

Q: What about the “Clinical Global Impression of Change Scale, mean” value ([3]; Week 4, Penicillamine Baseline Period (all patients on D-penicillamine), 4 = no change) of the same compound?
A: 4.0

Q: What about the “Clinical Global Impression of Change Scale, median” value [3, 16] of the same compound?
A: 4.0

Q: And the “Clinical Global Impression of Change Scale, mean” value [3, 21]?
A: 4.0

Q: And the “Clinical Global Impression of Change Scale, median” value [3, 21]?
A: 4.0

Q: What about the “Clinical Global Impression of Change Scale, mean” value [3, 22] of the same compound?
A: 4

Q: What about the “Clinical Global Impression of Change Scale, median” value [3, 22] of the same compound?
A: 4.0

Q: What about the “Clinical Global Impression of Change Scale, mean” value [3, 23] of the same compound?
A: 4.0

Q: What about the “Clinical Global Impression of Change Scale, median” value [3, 23] of the same compound?
A: 4.0

Q: What about the “Clinical Global Impression of Change Scale, mean” value [3, 24] of the same compound?
A: 3.9

Q: What about the “Clinical Global Impression of Change Scale, median” value [3, 24] of the same compound?
A: 4.0

Q: What about the “ALT, mean baseline” value [4] of the same compound?
A: 34.7 U/L
